Patent US7848888B2, “Method for identification of biologically active agents” (Vitruvean LLC, priority 2002, dated 2010)

Tests used:
flies = details: administered orally to flies; cited from earlier work
wild-type flies = assay: Motion tracking with wild-type flies; assay type: in vivo, Drosophila; details: flies fed 0.1M or 0.05M, compared to controls; FIG. 19
Source text: In the present exemplary application, to capture a movie of the movement of flies within specimen container 104, robot 114 grabs a specimen container 104 and positions it in front of camera 124. However, before positioning specimen container 104 in front of camera 124, robot 114 first raises specimen container 104 above a distance, such as about 2 centimeters, above base plate 106, then releases specimen container 104, which forces the flies within specimen container 104 to fall down to the bottom of specimen container 104. Robot 114 then grabs specimen container 104 again and positions it to be filmed by camera 124. In one exemplary embodiment, camera 124 captures about 40 consecutive frames at a frame rate of about 10 frames per second. It should be noted, however, that the number of frames captured and the frame rate used can vary. Additionally, the step of dropping specimen container 104 prior to filming can be omitted.
“Movement trait data” as used herein refers to the measurements made of one or more movement traits. Examples of “movement trait data” measurements include, but are not limited to X-pos, X-speed, speed, turning, stumbling, size, T-count, P-count, T-length, Cross150, Cross250, and F-count. Descriptions of these particular measurements are provided below. • X-Pos: The X-Pos score is calculated by concatenating the lists of x-positions for all trajectories and then computing the average of all values in the concatenated list. • X-Speed: The X-Speed score is calculated by first computing the lengths of the x-components of the speed vectors by taking the absolute difference in x-positions for subsequent frames. The resulting lists of x-speeds for all trajectories are then concatenated and the average x-speed for the concatenated list is computed. • Speed: The Speed score is calculated in the same way as the X-Speed score, but instead of only using the length of the x-component of the speed vector, the length of the whole vector is used. […]

[1] = test system: Drosophila expressing a mutant form of human Huntington (HD); assay: Motion tracking with Drosophila model of Huntington disease; assay type: in vivo; details: HD model with drug vs HD model without drug
Protocol: “Movement trait data” as used herein refers to the measurements made of one or more movement traits. Examples of “movement trait data” measurements include, but are not limited to X-pos, X-speed, speed, turning, stumbling, size, T-count, P-count, T-length, Cross150, Cross250, and F-count. Descriptions of these particular measurements are provided below. • X-Pos: The X-Pos score is calculated by concatenating the lists of x-positions for all trajectories and then computing the average of all values in the concatenated list. • X-Speed: The X-Speed score is calculated by first computing the lengths of the x-components of the speed vectors by taking the absolute difference in x-positions for subsequent frames. The resulting lists of x-speeds for all trajectories are then concatenated and the average x-speed for the concatenated list is computed. • Speed: The Speed score is calculated in the same way as the X-Speed score, but instead of only using the length of the x-component of the speed vector, the length of the whole vector is used. That is, [length]=square root of ([x-length]^2+[y-length]^2). • Turning: The Turning score is calculated in the same way as the Speed score, but instead of using the length of the speed vector, the absolute angle between the current speed vector and the previous one is used, giving a value between 0 and 90 degrees. • Stumbling: The Stumbling score is calculated in the same way as the Speed score, but instead of using the length of the speed vector, the absolute angle between the current speed vector and the direction of body orientation is used, giving a value between 0 and 90 degrees. • Size: The Size score is calculated in the same way as the Speed score, but instead of using the length of the speed vector, the size of the detected fly is used. • T-Count: The T-Count score is the number of trajectories detected in the movie. • P-Count: The P-Count score is the total number of points in the movie (i.e., the number of points in each trajectory, summed over all trajectories in the movie). • T-Length: The T-Length score is the sum of the lengths of all speed vectors in the movie, giving the total length all flies in the movie have walked. • Cross150: The Cross150 score is the number of trajectories that either crossed the line at x=150 in the negative x-direction (from bottom to top of the vial) during the movie, or that were already above that line at the start of the movie. […] In other words this score measures the number of detected flies that either managed to hold on to the tube or that managed to climb above the x=150 line within the length of the movie. • Cross250: The Cross250 score is equivalent to the Cross150 score, but uses a line at x=250 instead. • F-Count: The F-Count score counts the number of detected flies in each individual frame, and then takes the maximum of these values over all frames. […]
Drosophila expressing a mutant form of human Huntington (HD) have a functional deficit that is quantifiable, reproducible, and is suitable for automated high-throughput screening. Drosophila (or specimen) movements can be analyzed for various characteristics and/or traits. For example, statistics on the movements of the specimens, such as the x and y travel distance, path length, speed, turning, and stumbling, can be calculated. […]
Differences between the HD model+/−drug (HDAC inhibitor, TSA) and wild type (control)+/−drug (TSA) can clearly be detected using the motion tracking software. […]

NCC1(CC(=O)O)CCCCC1 [Gabapentin]
seizure and mean recovery times following seizure (flies): reduce

[Cl-].[Li+] [LiCl, Lithium Chloride]
incidence of stumbling (wild-type flies): increased incidence | incidence of turning (wild-type flies): increased incidence | speed (wild-type flies): significant reduction

O=C1NC(=O)C(c2ccccc2)(c2ccccc2)N1 [Phenytoin]
seizure and mean recovery times following seizure (flies): reduce

CC(/C=C/C(=O)NO)=C\[C@@H](C)C(=O)c1ccc(N(C)C)cc1 [TSA]
Speed score ([1]; p-values, FIG. 21B): do not yield significant values | Turning score ([1]; p-values, FIG. 21D): do not yield significant values | Stumbling score ([1]; p-values, FIG. 21F): do not yield significant values | T-Length score ([1]; p-values, FIG. 21H): best highlight the therapeutic effect | motor performance, Cross150 score (climbing ability) ([1]; FIG. 20, 21J): restore climbing ability for HD flies to almost the same level as for wt flies

CC1(C)O[C@@H]2[C@@H](CO[C@@]3(COS(N)(=O)=O)OC(C)(C)O[C@@H]23)O1 [Topiramate]
seizure and mean recovery times following seizure (flies): reduce
